Holding throughout (type): cell-based
One experiment concerns Alternaria solani. Kind of experiment: Alternaria solani (early blight tomato/potato) growth inhibition in PDB, 96-well microtiter plate, photometric after 48 hrs. The note with it: for Compound 1.001 inhibition: 1.001 0.0000 ppm, Table 11; for inhibition at 0.0008 ppm: 1.001 0.0008 ppm alone. How it is done: III) Altemaria solani (Early Blight Tomato/Potato):
Conidia of the fungus from cryogenic storage were directly mixed into nutrient broth (PDB potato dextrose broth). After placing a (DMSO) solution of the test compounds into a microtiter plate (96-well format), the nutrient broth containing the fungal spores was added. The test plates were incubated at 24 C and the inhibition of growth was determined photometrically after 48 hrs.

The test system of a further experiment is Botrytis cinerea. Kind of experiment: Botrytis cinerea (gray mould) growth inhibition in PDB, 96-well microtiter plate, photometric after 72 hrs. Particulars: for inhibition at 0.0063 ppm: 1.001 0.0063 ppm alone. How it is done: V) Botrytis cinerea (Gray Mould): Conidia of the fungus from cryogenic storage were directly mixed into nutrient broth (PDB potato dextrose broth). After placing a (DMSO) solution of the test compounds into a microtiter plate (96-well format), the nutrient broth containing the fungal spores was added. The test plates were incubated at 24 C and the inhibition of growth was determined photometrically after 72 hrs.

In experiment [1] the test system is Mycosphaerella arachidis, syn. Cercospora arachidicola. Briefly: Mycosphaerella arachidis (peanut brown leaf spot) growth inhibition in PDB, 96-well microtiter plate, photometric after 5-6 days. The protocol: II) Mycosphaerella arachidis, syn. Cercospora arachidicola (Peanut Brown Leaf Soot): Conidia of the fungus from cryogenic storage were directly mixed into nutrient broth (PDB potato dextrose broth). After placing a (DMSO) solution of the test compounds into a microtiter plate (96-well format), the nutrient broth containing the fungal spores was added. The test plates were incubated at 24 C and the inhibition of growth was determined photometrically after approximately 5-6 days.

In the next experiment the test system is Septoria tritici. Briefly: Septoria tritici (leaf blotch) growth inhibition in PDB, 96-well microtiter plate, photometric after 72 hrs. Particulars: Zymoseptoria tritici; for inhibition at 0.0008 ppm: 1.001 0.0008 ppm alone. The protocol:
I) Septoria tritici (Leaf Blotch): Conidia of the fungus from cryogenic storage were directly mixed into nutrient broth (PDB potato dextrose broth). After placing a (DMSO) solution of the test compounds into a microtiter plate (96-well format), the nutrient broth containing the fungal spores was added. The test plates were incubated at 24 C and the inhibition of growth was determined photometrically after 72 hrs.

The next experiment has as its system Venturia inaequalis. Briefly: Venturia inaequalis (apple scab) growth inhibition in PDB, 96-well microtiter plate, photometric after 7 days. Particulars: for inhibition at 0.0016 ppm: 1.001 0.0016 ppm alone; for inhibition at 0.0031 ppm: 1.001 0.0031 ppm alone. How it is done: IV) Venturia inaeaualis (Apple Scab): Conidia of the fungus from cryogenic storage were directly mixed into nutrient broth (PDB potato dextrose broth). After placing a (DMSO) solution of the test compounds into a microtiter plate (96-well format), the nutrient broth containing the fungal spores was added. The test plates were incubated at 24 C and the inhibition of growth was determined photometrically after 7 days.

In the next experiment the test system is Rhizoctonia solani. Kind of experiment: Rhizoctonia solani (Thanatephorus cucumeris) growth inhibition in PDB, 96-well microtiter plate, photometric and visual after 3-4 days. Particulars: for inhibition at 0.0063 ppm: 1.001 0.0063 ppm alone; for inhibition at 0.0125 ppm: 1.001 0.0125 ppm alone; for inhibition at 0.025 ppm: 1.001 0.0250 ppm alone; for inhibition at 0.05 ppm: 1.001 0.0500 ppm alone; for inhibition at 0.1 ppm: 1.001 0.1000 ppm alone. The protocol: VI) Rhizoctonia solani (Thanatephorus cucumeris) Mycelial fragments of a newly grown liquid culture of the fungus were directly mixed into nutrient broth (PDB potato dextrose broth). After placing a (DMSO) solution of the test compounds into a microtiter plate (96-well format), the nutrient broth containing the fungal material was added. The test plates were incubated at 24° C. and the inhibition of growth was determined photometrically and visually 3-4 days after application.

Where [2] appears, read: Table 6, read-out: Compound 1.001 inhibition.
Where [3] appears, read: Table 12, read-out: Compound 1.001 inhibition.
The mark [4] stands for this setting: Table 8, read-out: Compound 1.001 inhibition.
The mark [5] stands for this setting: Table 14, read-out: Compound 1.001 inhibition.

Each structure is given as a SMILES string. Like-named read-outs stand apart in the source and are kept apart here.

`CON(C(=O)c1cn(C)nc1C(F)F)C(C)Cc1c(Cl)cc(Cl)cc1Cl` (stereo not drawn) [Compound 1.001, 3-(difluoromethyl)-N-methoxy-1-methyl-N-[1-methyl-2-(2,4,6-trichlorophenyl)ethyl]pyrazole-4-carboxamide]: the “Compound 1.001 inhibition” value with Alternaria solani ((IId) 0.0039 ppm) is recorded as 9%; with Alternaria solani ((IId) 0.0078 ppm) it was 6%; in the experiment with Alternaria solani ((IId) 0.0156 ppm), 10%; with Alternaria solani ((IId) 0.0625 ppm), 6%; in the experiment on Alternaria solani ((IId) 0.1250 ppm) it was 0%. Besides, the inhibition at 0.0004 ppm turned out to be 26% in the experiment with Alternaria solani (Alternaria solani, 1.001 0.0004 ppm alone, Table 11, read-out: Compound 1.001 inhibition) and 47% in experiment [1] (1.001 0.0004 ppm alone, Table 10, read-out: Compound 1.001 inhibition). Also, the inhibition at 0.0008 ppm in the experiment on Alternaria solani (Alternaria solani, Table 5, read-out: Compound 1.001 inhibition) worked out at 23%; in the experiment on Alternaria solani (Alternaria solani, Table 11, read-out: Compound 1.001 inhibition) it was 34%; with Septoria tritici (Table 4, read-out: Compound 1.001 inhibition), 49%; with Septoria tritici (Table 9, read-out: Compound 1.001 inhibition), 45%. The inhibition at 0.0016 ppm in the experiment with Alternaria solani (Alternaria solani, 1.001 0.0016 ppm alone, Table 11, read-out: Compound 1.001 inhibition) was 60%; in the experiment with Septoria tritici (1.001 0.0016 ppm alone, Table 9, read-out: Compound 1.001 inhibition), 81%; with Venturia inaequalis (setting [2]) it was 62%; in the experiment with Venturia inaequalis (setting [3]) it was 50%. Moreover, the inhibition at 0.0063 ppm in the experiment on Botrytis cinerea (Table 7, read-out: Compound 1.001 inhibition) was 30%; in the experiment with Botrytis cinerea (Table 13, read-out: Compound 1.001 inhibition) it was 34%; in the experiment with Rhizoctonia solani (setting [4]), 16%; in the experiment with Rhizoctonia solani (setting [5]), 0%. The inhibition at 0.0031 ppm was 84% in the experiment on Venturia inaequalis (setting [2]); 81% with Venturia inaequalis (setting [3]); 13% in the experiment on Rhizoctonia solani (1.001 0.0031 ppm alone, Table 8, read-out: Compound 1.001 inhibition). In addition, the inhibition at 0.0125 ppm with Rhizoctonia solani (setting [4]) and in the experiment on Rhizoctonia solani (setting [5]) was 0% in each case. Further, the inhibition at 0.025 ppm with Rhizoctonia solani (setting [4]) turned out to be 0%; in the experiment on Rhizoctonia solani (setting [5]), 9%. Besides, the inhibition at 0.05 ppm is 15% with Rhizoctonia solani (setting [4]) and 0% with Rhizoctonia solani (setting [5]). Moreover, the inhibition at 0.1 ppm with Rhizoctonia solani (setting [4]) and in the experiment with Rhizoctonia solani (setting [5]) was 0% in each case.
For `Cc1nnc(C#N)c(-c2c(F)cccc2F)c1-c1ccccc1` [(IId), 4-(2,6-difluorophenyl)-6-methyl-5-phenyl-pyridazine-3-carbonitrile], the inhibition at 0.0313 ppm with Botrytis cinerea ((IId) 0.0313 ppm alone, Table 13, read-out: (IId) Inhibition) turned out to be 0%; in experiment [1] ((IId) 0.0313 ppm alone, Table 10), 5%; in the experiment on Septoria tritici ((IId) 0.0313 ppm alone, Table 9) it was 3%; in the experiment on Venturia inaequalis ((IId) 0.0313 ppm alone, Table 12, read-out: (IId) Inhibition), 15%. Further, the inhibition at 0.0625 ppm with Botrytis cinerea ((IId) 0.0625 ppm alone, Table 13) was found to be 0%; in the experiment with Septoria tritici ((IId) 0.0625 ppm alone, Table 9), 8%; in the experiment on Venturia inaequalis ((IId) 0.0625 ppm alone, Table 12) it was 0%. In experiment [1] ((IId) 0.0039 ppm alone, Table 10), 0.0039 ppm produced 5% inhibition. Besides, the inhibition at 0.0156 ppm in the experiment on Venturia inaequalis ((IId) 0.0156 ppm alone, Table 12, read-out: (IId) Inhibition) came out at 0%. Besides, testing at 0.5 ppm in the experiment with Rhizoctonia solani ((IId) 0.5000 ppm alone, Table 14) gave an inhibition of 31%.
In the case of `Cc1nnc(Cl)c(-c2c(F)cccc2F)c1-c1ccccc1` [(IIc), 4-(2,6-difluorophenyl)-3-chloro-6-methyl-5-phenyl-pyridazine], the inhibition at 0.002 ppm with Alternaria solani (Alternaria solani, (IIc) 0.0020 ppm alone, Table 5) is 0%. The inhibition at 0.0156 ppm was determined as 5% with Botrytis cinerea ((IIc) 0.0156 ppm alone, Table 7); 1% in the experiment on Septoria tritici ((IIc) 0.0156 ppm alone, Table 4); 6% in the experiment on Venturia inaequalis ((IIc) 0.0156 ppm alone, Table 6, read-out: (IIc) Inhibition). Further, the inhibition at 0.0313 ppm with Botrytis cinerea ((IIc) 0.0313 ppm alone, Table 7, read-out: (IIc) Inhibition) worked out at 4%; in the experiment with Venturia inaequalis ((IIc) 0.0313 ppm alone, Table 6, read-out: (IIc) Inhibition) it was 0%; with Rhizoctonia solani ((IIc) 0.0313 ppm alone, Table 8), 5%. Besides, the inhibition at 0.0078 ppm in the experiment with Venturia inaequalis ((IIc) 0.0078 ppm alone, Table 6) was 0%. In the experiment with Rhizoctonia solani ((IIc) 0.0625 ppm alone, Table 8), this compound gave an inhibition at 0.0625 ppm of 31%. In the experiment on Rhizoctonia solani ((IIc) 0.1250 ppm alone, Table 8), this compound gave an inhibition at 0.125 ppm of 85%. In the experiment with Rhizoctonia solani ((IIc) 0.2500 ppm alone, Table 8), testing at 0.25 ppm gave an inhibition of 88%.

Usually inhibition stands for the percentage by which the read-out fell short of the control.

The record behind these values is patent US10932466B2, “Fungicidal compositions” (SYNGENTA PARTICIPATIONS AG, priority 2016, dated 2021).
